Laboratory results: ChEMBL document CHEMBL6109128, “Copper-KRAS-COX2 Axis: A Therapeutic Vulnerability in Pancreatic Cancer” (J Med Chem, 2025)
Calls of active or inactive are those of the source. The rule behind the calls is not given here.

What was measured:
KPC2 = assay: Antitumor activity against mouse KPC2 cells implanted in FVB mouse assessed as reduction in tumor burden at 25 mg/kg, po measured after 14 days; type: functional, organism-based; conditions: time 14.0 day
[1] = Toxicity in BALB/c mouse assessed as spleen damage at 20 mg/kg, po measured after 29 days by H and E staining based analysis; type: organism-based; conditions: in vivo, 696 h, time 29 day
CT26 [2] = assay: Antitumor activity against mouse CT26 cells implanted in BALB/c mouse assessed as increase in cleaved PARP level at 140 mg/kg, po administered for 3 days; type: functional, organism-based; conditions: time 3.0 day
[3] = Drug concentration in mouse kidney at 15 mg/kg, iv measured at 24 hrs; type: ADME, organism-based; conditions: read-out: Ct
[4] = Toxicity in BALB/c mouse assessed as stomach damage at 20 mg/kg, po measured after 29 days by H and E staining based analysis; type: organism-based; conditions: in vivo, 696 h, time 29 day
[5] = Drug concentration in mouse heart at 15 mg/kg, iv measured at 7 hrs; type: ADME, organism-based; conditions: read-out: Ct
[6] = Toxicity in BALB/c mouse assessed as lung damage at 20 mg/kg, po measured after 29 days by H and E staining based analysis; type: organism-based; conditions: in vivo, 696 h, time 29 day
[7] = Drug concentration in mouse liver at 30 mg/kg, po measured at 7 hrs; type: ADME, organism-based; conditions: read-out: Ct
CT26 [8] = assay: Antitumor activity against mouse CT26 cells implanted in BALB/c mouse assessed as inhibition of tumor growth at 100 mg/kg, po measured after 14 days; type: functional, organism-based; conditions: time 14.0 day
[9] = Drug concentration in mouse plasma at 15 mg/kg, iv measured at 7 hrs; type: ADME, organism-based
[10] = Drug concentration in mouse liver at 15 mg/kg, iv measured at 7 hrs; type: ADME, organism-based; conditions: read-out: Ct
CT26 [11] = assay: Antitumor activity against mouse CT26 cells implanted in BALB/c mouse assessed as increase in cleaved caspase-3 level at 50 mg/kg, po measured after 14 days; type: functional, organism-based; conditions: time 14.0 day
[12] = Drug concentration in mouse heart at 30 mg/kg, po measured at 24 hrs; type: ADME, organism-based; conditions: read-out: Ct
CT26 [13] = assay: Antitumor activity against mouse CT26 cells implanted in BALB/c mouse assessed as tumor growth inhibition at 50 to 100 mg/kg, po administered for 14 days in presence of celecoxib; type: functional, organism-based; conditions: dose 50-100 mg/kg, time 14.0 day
Panc02 = assay: Antitumor activity against mouse Panc02 cells xenografted in C57BL/6 mouse assessed as tumor growth inhibition at 20 to 40 mg/kg, ip measured for 21 to 28 days; type: functional, organism-based; conditions: dose 20-40 mg/kg, time 21-28 day
[14] = Drug concentration in mouse kidney at 30 mg/kg, po measured at 24 hrs; type: ADME, organism-based; conditions: read-out: Ct
[15] = Drug concentration in mouse plasma at 30 mg/kg, po measured at 7 hrs; type: ADME, organism-based
[16] = Drug concentration in mouse liver at 15 mg/kg, iv measured at 24 hrs; type: ADME, organism-based; conditions: read-out: Ct
CT26 [17] = assay: Antitumor activity against mouse CT26 cells implanted in BALB/c mouse assessed as increase in cleaved PARP level at 140 mg/kg, iv administered for 3 days; type: functional, organism-based; conditions: time 3.0 day
[18] = Drug concentration in mouse kidney at 15 mg/kg, iv measured at 7 hrs; type: ADME, organism-based; conditions: read-out: Ct
[19] = Toxicity in BALB/c mouse assessed as colon damage at 20 mg/kg, po measured after 29 days by H and E staining based analysis; type: organism-based; conditions: in vivo, 696 h, time 29 day
[20] = Toxicity in BALB/c mouse assessed as maximum tolerated dose at IV measured for 7 days; conditions: in vivo, time 7 day
CT26 [21] = assay: Antitumor activity against mouse CT26 cells implanted in BALB/c mouse assessed as increase in cleaved PARP level at 50 mg/kg, po measured after 14 days; type: functional, organism-based; conditions: time 14.0 day
[22] = Toxicity in BALB/c mouse assessed as liver damage at 20 mg/kg, po measured after 29 days by H and E staining based analysis; type: organism-based; conditions: in vivo, 696 h, time 29 day
[23] = Toxicity in BALB/c mouse assessed as heart damage at 20 mg/kg, po measured after 29 days by H and E staining based analysis; type: organism-based; conditions: in vivo, 696 h, time 29 day
[24] = Drug concentration in mouse liver at 30 mg/kg, po measured at 24 hrs; type: ADME, organism-based; conditions: read-out: Ct
[25] = Drug concentration in mouse kidney at 30 mg/kg, po measured at 7 hrs; type: ADME, organism-based; conditions: read-out: Ct
[26] = Drug concentration in mouse heart at 30 mg/kg, po measured at 7 hrs; type: ADME, organism-based; conditions: read-out: Ct

For N[C@@H]1[C@H]2CN(c3cnc(C(=O)Nc4cc(F)cc5cccnc45)cn3)C[C@@H]12, the Activity (KPC2) was “Active”, the Activity [1] was “Non-toxic” and the Activity (CT26 [2]) was “Active”. The concentration at 24 h [3] was 53 ng/g, the Activity [4] was “Non-toxic” and the concentration at 7 h [5] was 882 ng/g. The Activity [6] was “Non-toxic”, the concentration at 7 h [7] was 5530 ng/g and the TGI (CT26 [8]) was “Active”. For the same molecule, the concentration at 7 h [9] was 98 ng/mL, the concentration at 7 h [10] was 2140 ng/g and the Activity (CT26 [11]) was “Active”. The concentration at 24 h [12] was 57 ng/g, the TGI (CT26 [13]) was “Active” and the TGI (Panc02) was “Active”. For the same molecule, the concentration at 24 h [14] was 137 ng/g, the concentration at 7 h [15] was 293 ng/mL and the concentration at 24 h [16] was 48 ng/g. The Activity (CT26 [17]) was “Active”, the concentration at 7 h [18] was 2690 ng/g and the Activity [19] was “Non-toxic”. For the same molecule, the MTD at 168 h [20] was 140 mg/kg, the Activity (CT26 [21]) was “Active” and the Activity [22] was “Non-toxic”. The Activity [23] was “Non-toxic”, the concentration at 24 h [24] was 92 ng/g and the concentration at 7 h [25] was 6100 ng/g. For the same molecule, the concentration at 7 h [26] was 1840 ng/g.
